The results in this text go back to patent US20210393645A1, “TREATMENT FOR PROGRESSIVE MULTIPLE SCLEROSIS” (UTI LIMITED PARTNERSHIP, priority 2016, published 2021).

Counter-ions that a name gives are not always drawn.

In one test the test system is human neurons. In words: Iron (FeSO4) mediated neurotoxicity screening, MAP-2 positive neurons counted. The class given is cell-based. Conditions: Homo sapiens, Neuron, 24 h, read-out: Drug % control (mean): number of neurons normalized to untreated control. How it is done:
Human neurons were isolated from brain tissues of therapeutically aborted 15-20 week old fetuses, in accordance with ethics approval of the University of Calgary ethics committee, after written informed consent of the pregnant donors. Neurons were isolated as previously described (Vecil et al., 2000) brain specimens were washed in phosphate buffered saline (PBS) to remove blood, followed by removal of meninges. […] Thereafter, the digestion was stopped by addition of 4 ml fetal calf serum (FCS). […] Cells were cultured in feeding medium of minimal essential medium (MEM) supplemented with 10% fetal bovine serum (FBS), 1 μM sodium pyruvate, 10 μM glutamine, 1× non-essential amino acids, 0.1% dextrose and 1% penicillin/streptomycin (all culture supplements from Invitrogen, Burlington, Canada). […] For experiments, the neuron-enriched cultures were retrypsinized and cells were plated in poly-L-ornithine pre-coated 96-well plates at a density of 100,000 cells/well in 100 μl of the complete medium supplemented with cytosine arabinoside. […] All conditions were performed in quadruplicates. A day later cells were fixed using 4% paraformaldehyde (PFA) and stored in PBS in 4° C.
Briefly, there were 80 compounds located in specific wells on each plate (e. g. B07). […] Each compound was supplied at a concentration of 10 mM dissolved in DMSO.
After filtering with a 0.2 μm filter, FeSO4 was added to cells in a final concentration of 25-50 μM in a volume of 50 μl medium to the cells. Rotenone was dissolved in dimethyl sulfoxide (DMSO) and used in a final concentration of 10 μM.
Staining was performed at room temperature. A blocking buffer was first introduced for 1 h followed by incubation with primary antibody overnight in 4° C.
Cell nuclei were stained with Hoechst S769121 (nuclear yellow). Cells were stored in 4° C. in the dark before imaging.
Images were taken using the automated ImageXpress® imaging system (Molecular Devices, Sunnyvale, Calif.) through a 10x objective microscope lens, displaying 4 or 9 sites per well. […] Cells were defined according to fluorescence intensity and size at different wavelengths. Data from all sites per well were averaged to one data point.
Neurons were pre-incubated with each compound for 1 h followed by application of FeSO4.
With `CC[C@H](C)C(=O)O[C@H]1C[C@@H](C)C=C2C=C[C@H](C)[C@H](CC[C@@H]3C[C@@H](O)CC(=O)O3)[C@H]21` [LOVASTATIN], the viability at 10 µM came to 32.2%.

With `COc1cc(NC(C)CCCN)c2ncccc2c1` (centres unmarked) [PRIMAQUINE DIPHOSPHATE], the viability at 10 µM is 89.1%. Regarding `CC1=C(C(=O)O)N2C(=O)[C@@H](NC(=O)[C@H](N)c3ccccc3)[C@H]2SC1` [CEPHALEXIN], the viability at 10 µM was found to be 38.9%.

Take `Clc1cccc(Cl)c1N=C1NCCN1` [CLONIDINE HYDROCHLORIDE]: the viability at 10 µM is 7.47%.

For the compound `CO[C@H]1/C=C/O[C@@]2(C)Oc3c(C)c(O)c4c(O)c(c(/C=N/N5CCN(C)CC5)c(O)c4c3C2=O)NC(=O)/C(C)=C\C=C\[C@H](C)[C@H](O)[C@@H](C)[C@@H](O)[C@@H](C)[C@H](OC(C)=O)[C@@H]1C` [RIFAMPIN], the viability at 10 µM came to 95.5%. On to `O=C(O)c1cn(C2CC2)c2cc(N3CCNCC3)c(F)cc2c1=O` [CIPROFLOXACIN], for which the viability at 10 µM amounted to 41%.

Still in this test, the particulars now being: Homo sapiens, Neuron; drug 10 μM 1 h before FeSO4 25 or 50 μM; MAP-2 neurons after 24 h; read-out: Drug % control (mean): number of neurons normalized to untreated control.
`NC(=O)NO` [HYDROXYUREA]: the viability at 10 µM worked out at 3.31%. As to `CN(C)[C@@H]1C(O)=C(C(N)=O)C(=O)[C@@]2(O)C(O)=C3C(=O)c4c(O)cccc4[C@@](C)(O)[C@H]3C[C@@H]12` [TETRACYCLINE HYDROCHLORIDE], the viability at 10 µM was found to be 25%. Same read-out and setting: as for `CC(=O)Nc1nnc(S(N)(=O)=O)s1` [ACETAZOLAMIDE], the figure is 23.6%; as for `CCN(CCO)CCCC(C)Nc1ccnc2cc(Cl)ccc12` (centres unmarked) [HYDROXYCHLOROQUINE SULFATE], 75.9%.

`CCCCNc1cc(C(=O)O)cc(S(N)(=O)=O)c1Oc1ccccc1` [BUMETANIDE]: the viability at 10 µM was found to be 29.4%. Take `CCOC(=O)[C@H](CCc1ccccc1)N[C@H]1CCc2ccccc2N(CC(=O)O)C1=O` [BENAZEPRIL HYDROCHLORIDE]: the viability at 10 µM turned out to be 72.2%. With `NNC(=O)c1ccncc1` [ISONIAZID], the viability at 10 µM came to 2.41%. Same read-out and setting: with `Cc1ncc([N+](=O)[O-])n1CCO` [METRONIDAZOLE] the figure was 27.1%; with `CCOC(=O)[C@H](CCc1ccccc1)N[C@@H](C)C(=O)N1Cc2ccccc2C[C@H]1C(=O)O` [QUINAPRIL HYDROCHLORIDE], 41.5%; with `NC[C@@H]1O[C@H](O[C@H]2[C@@H](O)[C@H](O[C@@H]3[C@@H](O)[C@H](N)C[C@H](N)[C@H]3O[C@H]3O[C@H](CO)[C@@H](O)[C@H](O)[C@H]3N)O[C@@H]2CO)[C@H](N)[C@@H](O)[C@@H]1O` [PAROMOMYCIN SULFATE], 35.3%. In the case of `C[C@H](CCC(=O)O)[C@H]1CC[C@H]2[C@@H]3[C@@H](O)C[C@@H]4C[C@H](O)CC[C@]4(C)[C@H]3CC[C@]12C` [URSODIOL], the viability at 10 µM came to 24.6%. Take `Cc1c(OCC(F)(F)F)ccnc1C[S+]([O-])c1nc2ccccc2[nH]1` (centres unmarked) [LANSOPRAZOLE]: the viability at 10 µM is 63.9%.

In the case of `CN(C)CCOC(c1ccccc1)c1ccccc1` [DIPHENHYDRAMINE HYDROCHLORIDE], the viability at 10 µM was 74.7%.

`O=C(O)Cc1ccccc1Nc1c(Cl)cccc1Cl` [DICLOFENAC SODIUM]: the viability at 10 µM amounted to 5.92%. Turning to `OC(CCN1CCCC1)(c1ccccc1)C1CCCCC1` (centres unmarked) [PROCYCLIDINE HYDROCHLORIDE], the viability at 10 µM worked out at 95.6%. Turning to `CN1CCC(=C2c3ccccc3CC(=O)c3sccc32)CC1` [KETOTIFEN FUMARATE], the viability at 10 µM is 1.77%. Still for that read-out and setting: with `Cc1ccc(S(=O)(=O)NC(=O)NN2CC3CCCC3C2)cc1` (centres unmarked) [GLICLAZIDE] the figure was 47.3%.

Take `CN1CCN(CCCN2c3ccccc3Sc3ccc(C(F)(F)F)cc32)CC1` [TRIFLUOPERAZINE HYDROCHLORIDE]: the viability at 10 µM was determined as 4.42%. Take `COCCOC(=O)C1=C(C)NC(C)=C(C(=O)OC(C)C)C1c1cccc([N+](=O)[O-])c1` (centres unmarked) [NIMODIPINE]: the viability at 10 µM stood at 62.8%.

For `Cc1cc(=O)n(-c2ccccc2)n1C` [ANTIPYRINE], the viability at 10 µM was found to be 2.11%.

For `CCOC(=O)N1CCC(=C2c3ccc(Cl)cc3CCc3cccnc32)CC1` [LORATADINE], the viability at 10 µM came to 44.3%. Regarding `CC1(C)NC(=O)N(c2ccc([N+](=O)[O-])c(C(F)(F)F)c2)C1=O` [NILUTAMIDE], the viability at 10 µM was determined as 48.7%. Still for that read-out and setting: with `Nc1ccc(S(=O)(=O)c2ccc(N)cc2)cc1` [DAPSONE] the figure was 18.6%; with `CC(C(=O)O)c1ccc(-c2ccccc2)c(F)c1` (centres unmarked) [FLURBIPROFEN], 4.63%; with `CN(C)C(=O)Oc1ccc[n+](C)c1` [PYRIDOSTIGMINE BROMIDE], 35.8%. As to `O=C1C(O)=C([C@H]2CC[C@H](c3ccc(Cl)cc3)CC2)C(=O)c2ccccc21` [ATOVAQUONE], the viability at 10 µM amounted to 67.7%. Take `CC(=O)CCCCn1c(=O)c2c(ncn2C)n(C)c1=O` [PENTOXIFYLLINE]: the viability at 10 µM is 66.5%. Take `Cc1cccc(Nc2ccccc2C(=O)O)c1C` [MEFENAMIC ACID]: the viability at 10 µM came to 57.2%. Turning to `CCN(CC)CCNC(=O)c1ccc(N)cc1` [PROCAINAMIDE HYDROCHLORIDE], the viability at 10 µM worked out at 64.3%.

With `CNC(=C[N+](=O)[O-])NCCSCc1ccc(CN(C)C)o1` [RANITIDINE], the viability at 10 µM came to 40.2%. For `CNCCC(Oc1ccc(C(F)(F)F)cc1)c1ccccc1` (centres unmarked) [FLUOXETINE], the viability at 10 µM turned out to be 81.4%.

For the compound `CC(=O)S[C@@H]1CC2=CC(=O)CC[C@]2(C)[C@H]2CC[C@@]3(C)[C@@H](CC[C@@]34CCC(=O)O4)[C@H]12` [SPIRONOLACTONE], the viability at 10 µM was determined as 37.1%.

On to `CO[C@H]1/C=C/O[C@@]2(C)Oc3c(C)c(O)c4c(O)c(c5c(nc6cc(C)ccn65)c4c3C2=O)NC(=O)/C(C)=C\C=C\[C@H](C)[C@H](O)[C@@H](C)[C@@H](O)[C@@H](C)[C@H](OC(C)=O)[C@@H]1C` [RIFAXIMIN], for which the viability at 10 µM amounted to 53.8%. As to `O=C1CN(/N=C/c2ccc([N+](=O)[O-])o2)C(=O)N1` [NITROFURANTOIN], the viability at 10 µM worked out at 17.8%. For the compound `CC(C)N(CCC(C(N)=O)(c1ccccc1)c1ccccn1)C(C)C` (centres unmarked) [DISOPYRAMIDE PHOSPHATE], the viability at 10 µM came out at 4.63%. With `CC(C[N+](C)(C)C)OC(N)=O` (centres unmarked) [BETHANECHOL CHLORIDE], the viability at 10 µM turned out to be 16%. As to `C[C@H]1c2cccc(O)c2C(=O)C2=C(O)[C@]3(O)C(=O)C(C(N)=O)=C(O)[C@@H](N(C)C)[C@@H]3[C@@H](O)[C@@H]21` [DOXYCYCLINE HYDROCHLORIDE], the viability at 10 µM was determined as 12.7%. `C[C@H](CS)C(=O)N1CCC[C@H]1C(=O)O` [CAPTOPRIL]: the viability at 10 µM is 35.3%. As for `CC[C@H]1OC(=O)[C@H](C)[C@@H](O[C@H]2C[C@@](C)(OC)[C@@H](O)[C@H](C)O2)[C@H](C)[C@@H](O[C@@H]2O[C@H](C)C[C@H](N(C)C)[C@H]2O)[C@](C)(OC)C[C@@H](C)C(=O)[C@H](C)[C@@H](O)[C@]1(C)O` [CLARITHROMYCIN], the viability at 10 µM is 55.1%. As to `Cc1ccc(C)c(OCCCC(C)(C)C(=O)O)c1` [GEMFIBROZIL], the viability at 10 µM was determined as 5.05%. Take `Cc1ccccc1N1C(=O)c2cc(S(N)(=O)=O)c(Cl)cc2NC1C` (centres unmarked) [METOLAZONE]: the viability at 10 µM came out at 69%. Turning to `CCC[C@H](N[C@@H](C)C(=O)N1[C@H](C(=O)O)C[C@@H]2CCCC[C@@H]21)C(=O)OCC` [PERINDOPRIL ERBUMINE], the viability at 10 µM came out at 49.4%. Consider `CC1(C)O[C@@H]2[C@@H](CO[C@@]3(COS(N)(=O)=O)OC(C)(C)O[C@@H]23)O1` [TOPIRAMATE], for which the viability at 10 µM stood at 46.1%. For the compound `COC(=O)Nc1nc2ccc(C(=O)c3ccccc3)cc2[nH]1` [MEBENDAZOLE], the viability at 10 µM came out at 2.48%. `CCC1(c2ccccc2)C(=O)NCNC1=O` [PRIMIDONE]: the viability at 10 µM turned out to be 45.2%. Take `CNCCCC12CCC(c3ccccc31)c1ccccc12` [MAPROTILINE HYDROCHLORIDE]: the viability at 10 µM worked out at 0.61%. As for `CN(C)CCC(c1ccc(Br)cc1)c1ccccn1` (centres unmarked) [BROMPHENIRAMINE MALEATE], the viability at 10 µM stood at 79.9%.

The same test, now with this note: drug 10 μM 1 h before FeSO4 25 or 50 μM; MAP-2 neurons after 24 h.
Take `Cc1cn([C@H]2C[C@H](N=[N+]=[N-])[C@@H](CO)O2)c(=O)[nH]c1=O` [ZIDOVUDINE [AZT]]: the “Drug % control (mean): number of neurons normalized to untreated control” value is on record as 66.49%.

On to `CC(C)c1c(C(=O)Nc2ccccc2)c(-c2ccccc2)c(-c2ccc(F)cc2)n1CC[C@@H](O)C[C@@H](O)CC(=O)[O-].CC(C)c1c(C(=O)Nc2ccccc2)c(-c2ccccc2)c(-c2ccc(F)cc2)n1CC[C@@H](O)C[C@@H](O)CC(=O)[O-].[Ca+2]` [ATORVASTATIN CALCIUM], for which the “Drug % control (mean): number of neurons normalized to untreated control” value was determined as 68.87%. Still for that read-out and setting: with `CN(C)CCOC(c1ccccc1)c1ccccc1.Cn1c(=O)c2[nH]c(Cl)nc2n(C)c1=O` [DIMENHYDRINATE] the figure was 36.53%.
